In US20200190062A1, “HETEROCYCLIC COMPOUND AND PHARMACEUTICAL COMPOSITION COMPRISING SAME” (BEYONDBIO INC., priority 2015, published 2020) one finds GI50 data, which are given here for nine compounds.

Molecules are shown by their SMILES. Structures can show the parent of a compound that is named as a salt.

What all share (test): Inhibition of cancer cell proliferation (MTT)
Type in all cases: cell-based, human

Assay [1] has as its system A549. As to the method: (§1) A test was conducted to confirm whether the compounds obtained in the above Examples can inhibit proliferation of human colon carcinoma cell line HCT116, glioblastoma cell lines U-87MG and T98G, neuroblastoma cell lines SH-SYSY and SK-N-SH, and lung cancer cell lines A549 and NCI-H23.
(§2) HCT116, U-87MG, SH-SYSY, SK-N-SH and A549 cells were culured in DMEM medium containing 10% FBS. T98G cells were cultured in MEM medium containing 10% FBS and NCI-H23 cells were cultured in […] medium containing 10% FBS. In order to analyze an inhibition of proliferation, HCT116 cells were dispensed in 2000 cells/well into 96 well plate, and SH-SYSY, SK-N-SH, U-87MG, T98G, A549, and NCI-H23 cells were dispensed in 3000 cells/well into 96 well plate. And then, the cells were cultured at 5% CO2 and 37° C. for 16 hrs to allow the cells to attach to the wells. The compounds of the above Examples were added to each well at a concentration of 0.004, 0.013, 0.04, 0.12, 0.37, 1.1, 3.3, and 10 uM, and the culture volume was adjusted to 100 ul. A control group was treated with dimethylsulfoxide (DMSO) at the same concentration, 0.08%, as used to treat the test compounds. Afterwards, cells were cultured at 5% CO2 and 37° C. for 72 hrs. And then, 10 ul of the solution of MTT (3-(4,5-dimethylthiazol-2-yl)-2,5-diphenyltetrazolium bromide) dissolved in PBS at 5 mg/ml was added to each well to identify viable cells and the cells were cultured for further 2 hrs. The culture solution was removed, 100 ul of DMSO was added to dissolve the formed formazan and then an absorbance was measured at 535 nm. Based on the absorbance of the control cells not treated with the compounds, the amounts of the viable cells according to the concentration of the compounds were calculated. GI50 (growth inhibition 50) value which is the concentration of the compound to inhibit cancer cell proliferation by 50% was calculated using Graphpad Prism 5.0 program.

The test system of assay [2] is NCI-H23. How it is done:
as §1, §2

For assay [3], the system named is T98G. As to the method:
as §1, §2

Assay [4] has as its system HCT116. As to the method:
as §1, §2

Assay [5] concerns U-87MG. How it is done: as §1, §2

The term GI50 denotes the concentration at which growth is held to half of that of the control.

On to `CCc1cnc(N)nc1-c1nc(-c2ccnc(N)c2F)ccc1O` [Example 102, 2′-amino-6-(2-amino-5-ethylpyrimidin-4-yl)-3′-fluoro-[2,4′-bipyridin]-5-ol 3hydrochloride], for which the GI50 in assay [1] (72 hrs) was found to be 40 nM; in assay [2] (72 hrs), 30 nM; in assay [3] (72 hrs), 20 nM; in assay [4] (72 hrs), 10 nM; in assay [5] (72 hrs) it was 30 nM.

For the compound `Cc1c(-c2nc(-c3ccnc(N)c3F)ccc2O)nc(N)nc1C1CCCN(C)C1` (stereo not drawn) [Example 97], the GI50 stood at 160 nM in assay [1] (72 hrs); 290 nM in assay [2] (72 hrs); 160 nM in assay [3] (72 hrs); 110 nM in assay [4] (72 hrs); 120 nM in assay [5] (72 hrs).

As for `CNc1nc(-c2nc(-c3ccnc(N)c3F)ccc2O)cc(C2CCN(C)CC2)n1` [Example 59, 2′-amino-3′-fluoro-6-(2-(methylamino)-6-(1-methylpiperidin-4-yl)pyrimidin-4-yl)-[2,4′-bipyridin]-5-ol], the GI50 stood at 70 nM in assay [1] (Homo sapiens, A549, 72 h); 130 nM in assay [2] (Homo sapiens, NCI-H23, 72 h); 110 nM in assay [3] (Homo sapiens, T98G, 72 h); 40 nM in assay [4] (Homo sapiens, HCT-116, 72 h); 70 nM in assay [5] (Homo sapiens, U-87 MG, 72 h).

Turning to `CCCc1c(-c2nc(-c3ccnc(N)c3F)ccc2O)nc(N)nc1C1CCN(C(C)C)CC1` [Example 50, 2′-amino-6-(2-amino-6-(1-isopropylpiperidin-4-yl)-5-propylpyrimidin-4-yl)-3′-fluoro-[2,4′-bipyridin]-5-ol], the GI50 in assay [1] (72 hrs) turned out to be 150 nM; in assay [2] (Homo sapiens, NCI-H23, 72 h) it was 160 nM; in assay [3] (Homo sapiens, T98G, 72 h), 130 nM; in assay [4] (Homo sapiens, HCT-116, 72 h), 40 nM; in assay [5] (Homo sapiens, U-87 MG, 72 h) it was 70 nM.

Consider `Cc1c(-c2nc(-c3ccnc(N)c3F)ccc2O)nc(N)nc1C1CCN(C)CC1` [Example 93, 2′-amino-6-(2-amino-5-methyl-6-(1-methylpiperidin-4-yl)pyrimidin-4-yl)-3′-fluoro-[2,4′-bipyridin]-5-ol 4hydrochloride], for which the GI50 in assay [1] (72 hrs) worked out at 100 nM; in assay [2] (72 hrs), 230 nM; in assay [3] (72 hrs), 100 nM; in assay [4] (72 hrs) it was 70 nM; in assay [5] (72 hrs), 110 nM.

As to `CCN1CCCC(c2cc(-c3nc(-c4ccnc(N)c4F)ccc3O)nc(N)n2)C1` (stereo not drawn) [Example 39, 2′-amino-6-(2-amino-6-(1-ethylpiperidin-3-yl)pyrimidin-4-yl)-3′-fluoro-[2,4′-bipyridin]-5-ol], the concentration for 50% growth inhibition (GI50) was found to be 400 nM in assay [1] (72 hrs); 1790 nM in assay [2] (72 hrs); 690 nM in assay [3] (72 hrs); 170 nM in assay [4] (72 hrs); 390 nM in assay [5] (72 hrs).

`CCCc1c(-c2nc(-c3ccnc(N)c3F)ccc2O)nc(N)nc1C1CCN(C(C)C)CC1` [Example 106, 2′-amino-6-(2-amino-6-(1-isopropylpiperidin-4-yl)-5-propylpyrimidin-4-yl)-3′-fluoro-[2,4′-bipyridin]-5-ol 4hydrochloride]: the GI50 in assay [1] (72 hrs) is 820 nM; in assay [2] (72 hrs), 170 nM; in assay [3] (72 hrs), 140 nM; in assay [4] (72 hrs), 60 nM; in assay [5] (72 hrs) it was 90 nM.

Take `Cc1cnc(N)nc1-c1nc(-c2ccnc(N)c2F)ccc1O` [Example 55, 2′-amino-6-(2-amino-5-methylpyrimidin-4-yl)-3′-fluoro-[2,4′-bipyridin]-5-ol]: the GI50 in assay [1] (72 hrs) was 160 nM; in assay [2] (72 hrs), 180 nM; in assay [3] (72 hrs), 130 nM; in assay [4] (Homo sapiens, HCT-116, 72 h), 50 nM; in assay [5] (Homo sapiens, U-87 MG, 72 h) it was 110 nM.

In the case of `Nc1nc(-c2nc(-c3ccnc(N)c3F)ccc2O)cc(C2CCOCC2)n1` [Example 32, 2′-amino-6-(2-amino-6-(tetrahydro-2H-pyran-4-yl)pyrimidin-4-yl)-3′-fluoro-[2,4′-bipyridin]-5-ol], the GI50 in assay [1] (Homo sapiens, A549, 72 h) came out at 80 nM; in assay [2] (Homo sapiens, NCI-H23, 72 h), 190 nM; in assay [3] (Homo sapiens, T98G, 72 h), 110 nM; in assay [4] (Homo sapiens, HCT-116, 72 h) it was 30 nM; in assay [5] (Homo sapiens, U-87 MG, 72 h), 100 nM.
